The source of these data is patent publication US11693006B2, “Blood profiling with protease inhibitors” (Sangui Bio Pty. Ltd, priority 2016, dated 2023).

Numbered stars: 1 amine (or outer) side, 2 acyl side, 3 side chain; on linkers, the order of the positions; unused ones are H or OH. Square brackets hold non-standard residues; d marks the D form. Peptide text beside a SMILES is read from it. * marks the point of attachment. ξ: configuration not given here. Sta = CC(C)C[C@H](N)[C@@H](O)CC(=O)O; Isovaleryl = CC(C)CC(=O)*; ξR = N=C(N)NCCCC(N)C(=O)O; ξF = NC(Cc1ccccc1)C(=O)O; CO = O=C([*:1])[*:2]

Common to all, as to type: cell-based, human
The subject of assay [1] is red blood cells from healthy individuals. The assay is described as follows: Cytokine release from red blood cells of healthy individuals incubated with protease inhibitors (27-plex and 21-plex Bio-Plex). The settings on record: for effect on cytokine release from healthy red blood cells individually: individual inhibitors at Table 5 concentrations. The method, then:
Blood samples from healthy volunteers were used to evaluate the effect of specific protease inhibitors on proteins from red blood cells. Whole blood was collected from healthy volunteers by venepuncture (n≥3) directly into EDTA vacutainers (k2EDTA vacutainers, BD Biosciences). The fractions of blood were collected and processed at room temperature within 4 hours of collection. For multiplex analysis (BioPlex analysis) the samples were stored at −80° C.
The red blood cells were isolated using dextran sedimentation as follows. Whole blood was centrifuged (1500 g, 10 minutes) and the upper plasma layer was discarded. The remaining cell pellet was resuspended in an equal volume of sodium chloride (0.15 M). Dextran (6% w/v in 0.15 M sodium chloride) was then added to this cellular suspension at a 1:4 ratio (dextran:cell suspension). The solution was left at room temperature for 30 minutes for red blood cell sedimentation to the bottom of the tube. The upper white blood cell rich layer was then discarded and the lower red blood cell fraction isolated. The red blood cell fraction was washed once in phosphate buffered saline (PBS, 500 g, 5 minutes) and the remaining red blood cell pellet was counted (Coulter Act Diff, Beckman Coulter). The red blood cells were then diluted to 400 million cells/mL in PBS and were incubated at 37° C. and 5% CO2 for 24 hours. Some samples were also incubated with the protease inhibitors indicated in Table 5 during the PBS incubation.
(§1) After incubation, the resulting conditioned PBS was isolated by centrifugation (500 g, 5 minutes) and then stored at −80° C. The conditioned PBS samples were then analysed on the multiplex cytokine assays. Two multiplex assays were utilised. The first was a 27-plex human cytokine panel that assays for FGF basic, Eotaxin, G-CSF, GM-CSF, IFN-γ, IL-1β, IL-1ra, IL-2, IL-4, IL-5, IL-6, IL-7, IL-8, IL-9, IL-10, IL-12(p70), IL-13, IL-15, IL-17, IP-10, MCP-1, MIP-1α, MIP-1β, PDGF-BB, RANTES, TNF-α, and VEGF, and the second was a 21-plex human cytokine panel that assays for IL-1α, IL-2Ra, IL-3, IL-12, IL-16, IL-18, CTACK, GRO-α, HGF, IFN-α2, LIF, MCP-3, M-CSF, MIF, MIG, β-NGF, SCF, SCGF-β, SDF-1α, TNF-β, TRAIL (Bio-Plex Pro 27-plex and 21-plex, Bio-Rad). The assays were performed according to manufacturer's instructions using an automated magnetic wash station (BioPlex Pro II, Bio-Rad) for the washing steps. The assays were run on the Luminex® 200™ system (Bio-Rad) and fluorescent values were collected. The calibration curve for each cytokine was analysed with 5 parametric logistic curve regression using BioPlex manager software (ver. 5.0, Bio-Rad, USA).
The fold change was determined for proteins in red blood cell-conditioned PBS at 400 million cells/mL following incubation at 37° C. for 24 hours with protease inhibitor cocktail or individual protease inhibitors from healthy participants. […] Significant differences (p<0.05) were determined using Student T-tests.
To determine the effect of a combination of protease inhibitors on the release of proteins from red blood cells, a protein profile was obtained from healthy red blood cells incubated with protease inhibitor cocktails. […] Healthy red blood cells were incubated with A8127s and the cOmplete protease inhibitor cocktail (Roche).

Assay [2] has as its system red blood cells from individuals having colorectal cancer. The assay is described as follows: Cytokine release from red blood cells of individuals having colorectal cancer incubated with protease inhibitors (27-plex). The settings on record: colorectal cancer red blood cells vs no protease inhibitors. The method, then:
Whole blood was collected from volunteers with by venepuncture directly into EDTA vacutainers (k2EDTA vacutainers, BD Biosciences). The fractions of blood were collected and processed at room temperature within 4 hours of collection. For multiplex analysis (BioPlex analysis) the samples were stored at −80° C. prior to analysis. The red blood cells were isolated using dextran sedimentation as follows. Whole blood was centrifuged (1500 g, 10 minutes) and the upper plasma layer was discarded. The remaining cell pellet was resuspended in an equal volume of sodium chloride (0.15 M). Dextran (6% w/v in 0.15 M sodium chloride) was then added to this cellular suspension at a 1:4 ratio (dextran:cell suspension). The solution was left at room temperature for 30 minutes for red blood cell sedimentation to the bottom of the tube. The upper white blood cell rich layer was discarded and the lower red blood cell fraction was isolated. The red blood cell fraction was washed once in phosphate buffered saline (PBS, 500 g, 5 minutes) and the remaining red blood cell pellet was counted (Coulter Act Diff, Beckman Coulter). The red blood cells were then diluted to 400 million cells/mL in PBS and incubated at 37° C. and 5% CO2 for 24 hours. Some samples were also incubated with the individual protease inhibitors in Table 5, a commercial protease inhibitor cocktail (cOmplete, Roche), or the A8127s protease inhibitor cocktail during the PBS incubation. The A8127s protease inhibitor cocktail comprised antipain-dihydrochloride (50 μg/mL); bestatin (40 μg/mL); E-64 (10 μg/mL); leupeptin (5 μg/mL); pepstatin (0.7 μg/mL); phosphoramidon (330 μg/mL); Pefabloc SC (1 mg/mL); EDTA-Na2 (0.5 mg/mL); and aprotinin (2 μg/mL).
as §1, with “minutes). The samples were” for “minutes) and then”, “on” for “on the multiplex cytokine assays. Two multiplex assays were utilised. The first was”, “VEGF” for “VEGF, and the second was a 21-plex human cytokine panel that assays for IL-1α, IL-2Ra, IL-3, IL-12, IL-16, IL-18, CTACK, GRO-α, HGF, IFN-α2, LIF, MCP-3, M-CSF, MIF, MIG, β-NGF, SCF, SCGF-β, SDF-1α, TNF-β, TRAIL”, “27-plex,” for “27-plex and 21-plex,”, “assay was” for “assays were”
Significant differences (p<0.05) were determined using Student T-tests. […]

In assay [3] the test system is red blood cells. The assay is described as follows: Protein profile in red blood cell lysates using cationic salt (21-plex). The settings on record: PBS containing 100 mM LiCl vs PBS. The method, then: Red blood cells were isolated using dextran sedimentation as follows. Whole blood was centrifuged (1500 g, 10 minutes) and the upper plasma layer was discarded. The remaining cell pellet was resuspended in an equal volume of sodium chloride (0.15 M). Dextran (6% w/v in 0.15 M sodium chloride) was then added to this cellular suspension at a 1:4 ratio (dextran:cell suspension). This solution was left at room temperature for 30 minutes for red blood cell sedimentation to the bottom of the tube. After this time the upper white blood cell rich layer and the lower red blood cell fraction were separated and the white blood cells discarded. The lower red blood cell fraction was washed twice in phosphate buffered saline (PBS, 500 g, 5 minutes). The supernatant was discarded, and the red blood cell pellet resuspended in either PBS or PBS containing 100 mM LiCl.
The red blood cells were subjected to 3 freeze-thaw cycles to ensure complete cellular lysis. […] The red blood cell lysates were analysed on a 21-plex human cytokine panel that assays for IL-1α, IL-2Ra, IL-3, IL-12, IL-16, IL-18, CTACK, GRO-α, HGF, IFN-α2, LIF, MCP-3, M-CSF, MIF, MIG, β-NGF, SCF, SCGF-β, SDF-1α, TNF-β, TRAIL (Bio-Plex Pro 27-plex and 21-plex, Bio-Rad). […] The calibration curve for each cytokine was analysed with 5 parametric logistic curve regression using BioPlex manager software (ver. 5.0, Bio-Rad, USA).

Setting [4] is: healthy red blood cells, in words.

`CC(C)[C@H](NC(=O)[C@H](CCCN=C(N)N)NC(=O)NC(Cc1ccccc1)C(=O)O)C(=O)NC(C=O)CCCN=C(N)N.Cl.Cl` (stereo partly drawn) [Sample ID 3, Antipain-dihydrochloride] ({ξF-CO}-Arg-Val-[ξR]-aldehyde): the “effect on cytokine release from healthy red blood cells individually” value (“effect on cytokine release” below) in assay [1] is “significant effect”. Also, in assay [2], the “concentration of IL-1β, IL-8, TNF-α, MIP-1α, G-CSF and IL-6” value is recorded as “decreasing”; the “concentration of released IFN-γ, IL-12(p70), IL-15, IL-17, IL-13, IL-7, IP-10, PDGF-bb and IL-2” value is reported as “increased”. `CC(C)C[C@H](NC(=O)[C@@H](O)[C@H](N)Cc1ccccc1)C(=O)O` [Sample ID 4, Bestatin]: in assay [1] (setting [4]), the “concentration of HGF following red blood cell incubation” value is “dramatically increased”; the “concentration of released IFN-a2, IL-18, MIF, TRAIL, HGF, and IL12-p40” value is listed as “alters”. Moreover, the “effect on cytokine release” value in assay [1] is recorded as “significant effect”. For the compound `CC(C)C[C@H](NC(=O)[C@H]1O[C@@H]1C(=O)O)C(=O)NCCCCN=C(N)N` [Sample ID 5, E-64], the “effect on cytokine release” value in assay [1] was “significant effect”. On to `CC(=O)N[C@@H](CC(C)C)C(=O)N[C@@H](CC(C)C)C(=O)N[C@H](C=O)CCCNC(=N)N` [Sample ID 6, Leupeptin], for which the “effect on cytokine release” value in assay [1] is “significant effect”. On to `CC(C)CC(=O)N[C@H](C(=O)N[C@H](C(=O)N[C@@H](CC(C)C)[C@@H](O)CC(=O)N[C@@H](C)C(=O)N[C@@H](CC(C)C)[C@@H](O)CC(=O)O)C(C)C)C(C)C` [Sample ID 7, Pepstatin] (Isovaleryl-VV[Sta]A[Sta]-OH), for which, in assay [1] (setting [4]), the “concentration of HGF following red blood cell incubation” value is recorded as “significantly decreased”; the “effect on concentration of IFN-a2, MIF, and HGF” value is listed as “opposite effect of bestatin”. Further, the “effect on cytokine release” value in assay [1] is recorded as “significant effect”. For `CC(C)C[C@H](NP(=O)(O)O[C@@H]1O[C@@H](C)[C@H](O)[C@@H](O)[C@H]1O)C(=O)N[C@@H](Cc1c[nH]c2ccccc12)C(=O)O` [Sample ID 8, Phosphoramidon], the “effect on cytokine release” value in assay [1] is reported as “significant effect”. Turning to `Cl.NCCc1ccc(S(=O)(=O)F)cc1` [Sample ID 9, Pefabloc SC], in assay [1], the “effect on cytokine release” value is “significant effect”. Moreover, in assay [2], the “concentration of IL-1β, IL-8, IL-9, TNF-α, IL-1ra, MCP-1, MIP-1α, G-CSF and IL-6” value was “decreasing”; the “released concentration of IL-13 and IL-7” value is “increased”.

For `O=C([O-])CN(CCN(CC(=O)[O-])CC(=O)O)CC(=O)O.[Na+].[Na+]` [Sample ID 10, EDTA-Na2], the “effect on cytokine release” value in assay [1] was “significant effect”. Consider `[Cl-].[Li+]` [lithium chloride], for which the “level of several of the proteins in the assay (21-plex human cytokine panel)” value in assay [3] is “increased and/or enhanced”.

For Aprotinin [Sample ID 11], the “effect on cytokine release” value in assay [1] is “significant effect”.
